Laboratory results from patent publication US20130303482A1, “Cylodextrin Complexation Methods for Formulating Peptide Proteasome Inhibitors” (ONYX THERAPEUTICS, INC., priority 2012, published 2013).
Values after ≈ are worked out from the molar mass of the structure shown.

Assays:
[1] = Solubility of carfilzomib as a function of SBECD concentration, pH 1.5 and 3.5, 5° C. and 25° C. (Example 4); type: physicochemical; settings: SBECD solutions, citric acid 30 mM, pH 1.5 and 3.5, 5° C. vs 25° C., 24 hours
Description: The experiments at acidic conditions below the target pH values and titrated to pH 1.5 or 3.5 using aqueous sodium hydroside solution. Measurements of solubilized concentration were those from samples analyzed after 24 hours of time to equilibrate.

[2] = Slurry complexation / solubilization of CFZ-API in SBECD with citric acid (Example 1); type: physicochemical
Description: In a 525 L stainless steel jacketed cooled tank controlled to 2° C.-8° C., a suspension of 2.0 kg carfilzomib-API (CFZ-API), 246 kg water for injection (WFI), and 100 kg sulfobutylether beta-cyclodextrin (SBECD) was prepared. Specifically, in the 525 L stainless steel jacketed cooled tank controlled to 2° C.-8° C., 100 kg SBECD was dissolved in 246 kg WFI. The Carfilzomib suspension was then prepared using 2.0 kg of CFZ-API. Mixing was performed using an impeller mixer to maintain suspension of the CFZ-API solids and dissolve the SBECD. In the same vessel, a probe style rotor-stator high shear mixer (homogenizer) was used as well as the low shear impeller. The high shear mixer was operated for approximately 1 hour yielding an even suspension and reduction of particle size for any larger primary particles or agglomerated API. After a suspension was achieved, 1.96 kg of citric acid was added as a 16% aqueous solution. The pH of the solution was then lowered inducing partial solubilization of the CFZ-API followed by and complexation due to the presence of SBECD. Mixing was continued for a further 24 hours with both the impeller and the high shear mixer and a dissolved concentration of CFZ-API of greater than 5.1 mg/mL was achieved. The suspension containing greater than 5.1 mg/mL of dissolved complexed CFZ-API was filtered with a 0.45 micrometer clarifying filter, then accurately diluted to a dissolved concentration of 5.0 mg/mL and pH adjusted with 1 N sodium hydroxide solution to achieve pH 3.5. The solution was sterile filtered, with two sequential 0.22 micrometer sterilizing filters, then filled into vials 12.36 mL each, containing 61.8 mg per vial of CFZ-API. The vials were partially stoppered and loaded into a lyophilizer and freeze dried over 103 hours using a freezing temperature of −45° C., primary drying temperature of −15° C., and secondary drying of +30° C. The lyophilized vials were fully stoppered, and capped, then stored at the product stability temperature of 2° C.-8° C. for up to two years before use. […]

[3] = CDP (chlorohydrin degradation product) formation in lyophilized complexed carfilzomib vs pH, water and sodium chloride content, HPLC (Example 2); type: physicochemical
Description: A multivariate statistical design of experiments was conducted to assess factors controlling the level of chlorohydrin degradation product as a function of processing parameters and storage time over six months. The complexation was performed in the proportion and parameters given in Example 1, with the following modifications: (i) the complexation process was performed at 2 L batch size; (ii) the final pH of solution before vial filling was varied for purposes of the experiment from 3.0, to 4.0; (iii) sodium chloride was spiked into SBECD in some experiments to create a high sodium chloride condition; (iv) water content of the lyophilized final product in stoppered vials was produced at high and low sodium chloride conditions via early termination and stoppering of vials to create a higher residual water content condition.
The solution of complexed carfilzomib for injection bulk solution pre-lyophilization included aqueous 5 mg/mL carfilzomib, 250 mg/mL Captisol® (SBECD) and 4.86 mg/mL citric acid, pH adjusted with aqueous sodium hydroxide. Compounding of the bulk solutions for lyophilization followed the procedure detailed in Example 1 with the following manipulations to create solutions with different specific attributes: • 1. pH was adjusted to 3.0 and 4.0 • 2. Sodium chloride was spiked into the Captisol® to create a “High Chloride” condition Captisol® manufactured by Cydex, a subsidiary of Ligand, has a standard product analysis range for sodium chloride from 0.05% to 0.2% (w/v). […] 400 g of this Captisol® was required per batch for the process to be performed at 2 L scale batches of complexation processing (in same proportions and general parameters per Example 1). To create the “high chloride” condition, 0.6 g of NaCl was added to 399.4 g of Captisol® which thus mimicked what a batch containing 0.2% chloride Captisol® would be comprised of.
In order to generate two (2) moisture content conditions in the final lyophilized vials, two (2) sets of 61.8 mg/vial (of CFZ-API) samples were lyophilized. The first cycle generated the “dry” sample set of vials containing approximately 0.6% residual water per Example 1 lyophilization parameters. For the second sample set, lyophilization was terminated and vials stoppered earlier in the secondary drying phase to generate the “wet” condition vials, with residual moisture approximately 2.4% water per vial initially.
The bulk solution of complexed carfilzomib was analyzed during manufacture by High Performance Liquid Chromatography (HPLC) to accurately quantify the concentration of dissolved and complexed carfilzomib drug substance. Subsequently, additional water was added to accurately dilute the bulk complexed solution. After this dilution step, HPLC was used again to ensure a target concentration of 5.0 mg/mL was achieved. Samples of the three (3) final bulk solutions were analyzed for potency and purity confirmation testing by HPLC. […] Karl Fischer Coulometry method was used for the water content determination in the lyophilized drug product.

[4] = physchem

## CC(C)C[C@H](NC(=O)[C@H](CCc1ccccc1)NC(=O)CN1CCOCC1)C(=O)N[C@@H](Cc1ccccc1)C(=O)N[C@@H](CC(C)C)C(=O)[C@@]1(C)CO1 [carfilzomib]
[1]
  difference in solubility between low and high temperature (FIG. 6): No significant differences in solubility
[2]; 24 hour complexation, mean API particle size 21.1 vs 7.5 micrometers
  extent of solubilization vs API particle size (FIG. 2): equivalent extent of solubilization
[2]; SBECD/WFI/citric acid slurry, 2° C.-8° C., 24 hours mixing
  dissolved concentration of CFZ-API: greater than 5.1 mg/mL
[2]; process of Example 1
  effect of higher SBECD concentration on solubility (FIG. 3): increased the solubility
[3]; pH 3.00, water 0.7%, sodium chloride 0.05%, 5° C.
  % Area of CDP after 6 months (HPLC data): 0.00 % Area
[3]; pH 3.00, water 0.7%, sodium chloride 0.05%, 25° C.
  % Area of CDP after 6 months (HPLC data): 0.14 % Area
[3]; pH 3.00, water 0.7%, sodium chloride 0.2%, 5° C.
  % Area of CDP after 6 months (HPLC data): 0.13 % Area
[3]; pH 3.00, water 0.7%, sodium chloride 0.2%, 25° C.
  % Area of CDP after 6 months (HPLC data): 0.70 % Area
[3]; pH 3.00, water 2%, sodium chloride 0.05%, 5° C.
  % Area of CDP after 6 months (HPLC data): 0.02 % Area
[3]; pH 3.00, water 2%, sodium chloride 0.05%, 25° C.
  % Area of CDP after 6 months (HPLC data): 0.55 % Area
[3]; pH 3.00, water 2%, sodium chloride 0.2%, 5° C.
  % Area of CDP after 6 months (HPLC data): 0.28 % Area
[3]; pH 3.00, water 2%, sodium chloride 0.2%, 25° C.
  % Area of CDP after 6 months (HPLC data): 2.57 % Area
[3]; pH 4.00, water 0.7%, sodium chloride 0.05%, 5° C.
  % Area of CDP after 6 months (HPLC data): 0.00 % Area
[3]; pH 4.00, water 0.7%, sodium chloride 0.05%, 25° C.
  % Area of CDP after 6 months (HPLC data): 0.09 % Area
[3]; pH 4.00, water 0.7%, sodium chloride 0.2%, 5° C.
  % Area of CDP after 6 months (HPLC data): 0.08 % Area
[3]; pH 4.00, water 0.7%, sodium chloride 0.2%, 25° C.
  % Area of CDP after 6 months (HPLC data): 0.36 % Area
[3]; pH 4.00, water 2%, sodium chloride 0.05%, 5° C.
  % Area of CDP after 6 months (HPLC data): 0.02 % Area
[3]; pH 4.00, water 2%, sodium chloride 0.05%, 25° C.
  % Area of CDP after 6 months (HPLC data): 0.35 % Area
[3]; pH 4.00, water 2%, sodium chloride 0.2%, 5° C.
  % Area of CDP after 6 months (HPLC data): 0.18 % Area
[3]; pH 4.00, water 2%, sodium chloride 0.2%, 25° C.
  % Area of CDP after 6 months (HPLC data): 1.71 % Area
[4]; pH 1, simulated gastric fluid
  solubility: 1800 µg/mL (≈ 2500 µM)
[4]; pH 3, aqueous buffer
  solubility: 20 µg/mL (≈ 27.8 µM)
[4]; pH 5, aqueous buffer
  solubility: 2 µg/mL (≈ 2.78 µM)
[4]; water
  solubility: 2 µg/mL (≈ 2.78 µM)
